Test results taken from patent publication EP1167342A1, “Novel substituted nitrocatechols, their use in the treatment of some central and peripheral nervous system disorders and pharmaceutical compositions containing them” (Portela & Ca., S.A., priority 2000, dated 2002).

Tests used:
COMT = biological target: T1, COMT (Homo sapiens, UniProt P21964); assay: COMT activity in intact SK-N-SH cells (methylation of adrenaline to metanephrine, HPLC with electrochemical detection); type: cell-based; details: concentration of test compound 100 nM, means ±SEM of n=4-8
T1 construct: COMT activity was evaluated in cell monolayers by the ability to methylate adrenaline; host or cells: SK-N-SH
T1 sequence (P21964 1-271): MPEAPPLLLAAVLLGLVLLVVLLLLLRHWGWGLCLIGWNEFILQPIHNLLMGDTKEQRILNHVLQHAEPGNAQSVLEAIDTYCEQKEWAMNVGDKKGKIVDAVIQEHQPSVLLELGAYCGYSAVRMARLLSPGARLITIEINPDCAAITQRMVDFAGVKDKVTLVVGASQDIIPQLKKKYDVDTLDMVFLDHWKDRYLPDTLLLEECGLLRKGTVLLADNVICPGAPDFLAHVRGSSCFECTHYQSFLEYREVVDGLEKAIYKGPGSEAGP

Liver COMT = assay: Ex vivo COMT activity in mouse liver homogenates after administration of test compound by gastric tube; design: species or system NMRI mice; details: for Liver COMT (% of control) 1h / Liver COMT (% of control) 6h: homogenates of mice liver, dose not given, means±S.E.M. of 4-8 experiments; for Liver COMT (% of control) 1h: 1 h after administration by gastric tube; for Liver COMT (% of control) 6h: 6 h after administration by gastric tube; for potency upon liver COMT compared with brain COMT: mice, after oral administration, statement in words
Brain COMT = assay: Ex vivo COMT activity in mouse brain homogenates after administration of test compound by gastric tube; design: species or system NMRI mice; details: for Brain COMT (% of control) 1h / Brain COMT (% of control) 6h: homogenates of mice brain, dose not given, means±S.E.M. of 4-8 experiments; for Brain COMT (% of control) 1h: 1 h after administration by gastric tube; for Brain COMT (% of control) 6h: 6 h after administration by gastric tube; for activity in the brain: conclusion, statement in words

Row | SMILES | COMT activity (% of control) (COMT) | Liver COMT (% of control) 1h (Liver COMT) | Liver COMT (% of control) 6h (Liver COMT) | Brain COMT (% of control) 1h (Brain COMT) | Brain COMT (% of control) 6h (Brain COMT) | potency upon liver COMT compared with brain COMT (Liver COMT) | activity in the brain (Brain COMT)
1 | COc1ccc(OCC(=O)c2cc(O)c(O)c([N+](=O)[O-])c2)cc1 [Compound 9, 1-(3,4-Dihydroxy-5-nitro-phenyl)-2-(4-methoxy-phenoxy)-ethanone] | 12.8±0.4 % of control | 29.0±1.0 % of control | 35.0±6.0 % of control | 59.0±6.0 % of control | 93.0±9.0 % of control | – | –
2 | Cl.Cl.Cl.O=C(CN1CCN(c2ccccn2)CC1)c1cc(O)c(O)c([N+](=O)[O-])c1 [Compound 14, 1-(3,4-Dihydroxy-5-nitro-phenyl)-2-(4-pyridin-2-yl-piperazin-1-yl)-ethanone trihydrochloride] | 8.5±0.3 % of control | 33.6±5.6 % of control | 50.3±5.6 % of control | 95.4±11.4 % of control | 121.2±11.8 % of control | – | –
3 | Cl.Cl.Cl.Cl.O=C(CCN1CCN(c2ncccn2)CC1)c1cc(O)c(O)c([N+](=O)[O-])c1 [Compound 23, 1-(3,4-Dihydroxy-5-nitro-phenyl)-3-(4-pyrimidin-2-yl-piperazin-1-yl)-propan-1-one tetrahydrochloride] | 4.4±0.9 % of control | 30.0±2.5 % of control | 56.3±6.0 % of control | 87.0±6.0 % of control | 123.0±12.0 % of control | – | –
4 | Cl.Cl.O=C(CCN1CCN(c2ccccc2Cl)CC1)c1cc(O)c(O)c([N+](=O)[O-])c1 [Compound 22, 3-[4-(2-Chloro-phenyl)-piperazin-1-yl]-1-(3,4-dihydroxy-5-nitro-phenyl)-propan-1-one dihydrochloride] | 0.0±0.0 % of control | 54.2±7.5 % of control | 71.7±0.4 % of control | 94.0±3.0 % of control | 96.0±18.0 % of control | – | –
5 | CC1CN(CC(=O)c2cc(O)c(O)c([N+](=O)[O-])c2)CC(C)O1.Cl (stereo not drawn) [Compound 11, 1-(3,4-Dihydroxy-5-nitro-phenyl)-2-(2,6-dimethyl-morpholin-4-yl)-ethanone hydrochloride] | 14.8±1.3 % of control | 38.0±5.0 % of control | 73.0±10.0 % of control | 80.0±5.0 % of control | 103.0±7.0 % of control | – | –
6 | COc1ccc(C(=O)N2CCN(CCC(=O)c3cc(O)c(O)c([N+](=O)[O-])c3)CC2)cc1.Cl.Cl [Compound 30, 1-(3,4-Dihydroxy-5-nitro-phenyl)-3-[4-(4-methoxy-benzoyl)-piperazin-1-yl]-propan-1-one dihydrochloride] | 1.9±1.3 % of control | – | – | – | – | – | –
7 | Cl.Cl.O=C(CCN1CCN(c2cccc(C(F)(F)F)c2)CC1)c1cc(O)c(O)c([N+](=O)[O-])c1 [Compound 18, 1-(3,4-Dihydroxy-5-nitro-phenyl)-3-[4-(3-trifluoromethyl-phenyl)-piperazin-1-yl]-propan-1-one dihydrochloride] | 4.2±0.2 % of control | 18.5±6.8 % of control | 26.3±3.9 % of control | 86.0±14.0 % of control | 86.0±11.0 % of control | much more potent upon liver COMT than brain COMT | limited activity in the brain
8 | CC1CCCCN1CCC(=O)c1cc(O)c(O)c([N+](=O)[O-])c1.Cl (stereo not drawn) [Compound 26, 1-(3,4-Dihydroxy-5-nitro-phenyl)-3-(2-methyl-piperidin-1-yl)-propan-1-one hydrochloride] | 4.8±0.4 % of control | 18.3±2.9 % of control | 55.2±4.7 % of control | 69.8±3.2 % of control | 89.6±13.4 % of control | – | –
9 | CCN(CC)C(C)C(=O)c1cc(O)c(O)c([N+](=O)[O-])c1.Cl (stereo not drawn) [Compound 7, 2-Diethylamino-1-(3,4-dihydroxy-5-nitro-phenyl)-propan-1-one hydrochloride] | 9.0±0.2 % of control | 38.4±2.8 % of control | 57.1±4.9 % of control | 74.0±12.0 % of control | 126.0±8.0 % of control | – | –
10 | Cl.O=C(CCN1CCSCC1)c1cc(O)c(O)c([N+](=O)[O-])c1 [Compound 19, 1-(3,4-Dihydroxy-5-nitro-phenyl)-3-thiomorpholin-4-yl-propan-1-one hydrochloride] | 6.8±2.3 % of control | 30.3±4.0 % of control | 57.9±8.6 % of control | 93.0±19.0 % of control | 107.0±3.0 % of control | – | –
11 | Cl.O=C(CCN1CCCCCCC1)c1cc(O)c(O)c([N+](=O)[O-])c1 [Compound 16, 3-Azocan-1-yl-1-(3,4-dihydroxy-5-nitro-phenyl)-propan-1-one hydrochloride] | 3.2±0.2 % of control | 22.1±3.4 % of control | 71.7±21.6 % of control | 25.0±13.0 % of control | 95.0±12.0 % of control | equally potent in inhibiting liver and brain COMT activity | –
12 | O=C(COc1ccccc1)c1cc(O)c(O)c([N+](=O)[O-])c1 [Compound 8, 1-(3,4-Dihydroxy-5-nitro-phenyl)-2-phenoxy-ethanone] | 8.6±0.1 % of control | 22.0±3.7 % of control | 49.6±9.4 % of control | 61.0±4.0 % of control | 104.4±6.2 % of control | – | –
13 | Cl.O=C(CC(c1ccccc1)N1CCCCC1)c1cc(O)c(O)c([N+](=O)[O-])c1 (stereo not drawn) [Compound 3, 1-(3,4-Dihydroxy-5-nitro-phenyl)-3-phenyl-3-piperidin-1-yl-propan-1-one hydrochloride] | 7.2±1.9 % of control | 13.5±3.2 % of control | 13.6±3.2 % of control | 81.0±11.0 % of control | 71.0±11.0 % of control | much more potent upon liver COMT than brain COMT | limited activity in the brain
14 | Cl.O=C(CCN1CCCCCC1)c1cc(O)c(O)c([N+](=O)[O-])c1 [Compound 20, 3-Azepan-1-yl-1-(3,4-dihydroxy-5-nitro-phenyl)-propan-1-one hydrochloride] | 3.6±0.3 % of control | 39.0±2.0 % of control | 64.0±12.0 % of control | 106.0±9.0 % of control | 125.0±5.0 % of control | – | –
15 | Cl.O=C(CN1CCCCCC1)c1cc(O)c(O)c([N+](=O)[O-])c1 [Compound 1, 2-Azepan-1-yl-1-(3,4-dihydroxy-5-nitro-phenyl)-ethanone hydrochloride] | 4.3±0.6 % of control | 40.8±6.4 % of control | 49.9±2.2 % of control | 45.0±15.0 % of control | 102.0±19.0 % of control | – | –
16 | Cl.O=C(CCN1CCC(Cc2ccccc2)CC1)c1cc(O)c(O)c([N+](=O)[O-])c1 [Compound 24, 3-(4-Benzyl-piperidin-1-yl)-1-(3,4-dihydroxy-5-nitro-phenyl)-propan-1-one hydrochloride] | 0.0±0.0 % of control | 16.5±1.5 % of control | 37.7±3.9 % of control | 33.0±8.0 % of control | 98.0±2.0 % of control | – | –
17 | Cl.O=C(CCN1CCc2ccccc2C1)c1cc(O)c(O)c([N+](=O)[O-])c1 [Compound 27, 3-(3,4-Dihydro-1H-isoquinolin-2-yl)-1-(3,4-dihydroxy-5-nitro-phenyl)-propan-1-one hydrochloride] | 11.4±4.0 % of control | – | – | – | – | – | –
18 | Cc1ccc(SCC(=O)c2cc(O)c(O)c([N+](=O)[O-])c2)cc1 [Compound 28, 1-(3,4-Dihydroxy-5-nitro-phenyl)-2-p-tolylsulphanyl-ethanone] | 10.0±2.6 % of control | – | – | – | – | – | –
19 | Cl.Cl.O=C(CCN1CCN(C(=O)c2ccccc2)CC1)c1cc(O)c(O)c([N+](=O)[O-])c1 [Compound 29, 3-(4-Benzoyl-piperazin-1-yl)-1-(3,4-dihydroxy-5-nitro-phenyl)-propan-1-one dihydrochloride] | 1.5±0.6 % of control | – | – | – | – | – | –
